Results published in publication PMC8270334, “Design, Sustainable Synthesis and Biological Evaluation of a Novel Dual α2A/5-HT7 Receptor Antagonist with Antidepressant-Like Properties” (Molecules, 2021).

Target: T1, 5-HT7R (Homo sapiens, UniProt P34969)
T1 construct: expressed in transfected cells; host or cells: HEK-293 (prepared with Lipofectamine 2000, G418 selection)
Assay: intrinsic activity at 5-HT7R, LANCE cAMP assay in HEK-293 cells, 5-CT stimulated
Type: cell-based
Conditions: read-out: 5-HT7 Kb
Experimental: Cells (prepared with the use of Lipofectamine 2000) were maintained at 37 °C in a humidified atmosphere with 5% CO2 and grown in Dulbeco’s Modifier Eagle Medium containing 10% dialyzed fetal bovine serum and […] G418 sulphate. For functional experiments, cells were subcultured in 25 cm diameter dishes, grown to 90% confluence, washed twice with pre-warmed to 37 °C phosphate buffered saline (PBS) and were centrifuged for 5 min (160× g). The supernatant was aspirated, then the cell pellet was resuspended in stimulation buffer (1 × HBSS, 5 mM HEPES, 0.5 mM IBMX, 0.1% BSA). The cAMP level was measured using the LANCE cAMP detection kit (PerkinElmer), according to the manufacturer’s directions. […] Cells (5 µL) were incubated with compounds (5 µL) for 30 min at room temperature in 384-well white opaque microtiter plate. After incubation, the reaction was stopped, and cells were lysed by the addition of 10 µL working solution (5 µL Eu-cAMP and 5 µL ULight-anti-cAMP). The assay plate was incubated for 1 h at room temperature. Time-resolved fluorescence resonance energy transfer (TR-FRET) was detected by an Infinite M1000 Pro (Tecan) using instrument settings from LANCE cAMP detection kit manual. Kb values were calculated from the Cheng–Prusoff equation specific for the analysis of functional inhibition curves: Kb = IC50/(1+A/EC50) where A is the agonist concentration, IC50 is the concentration of the antagonist producing a 50% reduction in the response to the agonist, and EC50 is the agonist concentration which causes half of the maximal response.

T1 sequence (P34969 1-432): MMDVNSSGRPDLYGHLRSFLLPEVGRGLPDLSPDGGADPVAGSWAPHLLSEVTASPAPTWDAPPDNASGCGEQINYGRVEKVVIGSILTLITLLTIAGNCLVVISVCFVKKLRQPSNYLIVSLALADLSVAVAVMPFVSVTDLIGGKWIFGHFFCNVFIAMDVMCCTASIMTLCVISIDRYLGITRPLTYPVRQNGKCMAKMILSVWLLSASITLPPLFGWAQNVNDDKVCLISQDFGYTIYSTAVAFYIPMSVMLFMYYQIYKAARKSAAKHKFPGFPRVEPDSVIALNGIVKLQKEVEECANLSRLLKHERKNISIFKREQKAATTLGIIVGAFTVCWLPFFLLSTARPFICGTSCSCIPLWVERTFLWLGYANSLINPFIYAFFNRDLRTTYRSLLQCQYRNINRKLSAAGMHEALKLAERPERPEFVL

For `CC1(C)Cc2cccc(OCCN3CCC(NS(=O)(=O)c4ccc(F)cc4)CC3)c2O1` [Compound 6, 4-Fluoro-N-{1-[2-(2,2-dimethyl-2,3-dihydrobenzofuran-7-yloxy)ethyl]piperidin-4-yl} benzenesulfonamide], the Kb was 186 ± 37 nM.

With `CC1(C)Cc2cccc(OCCN3CCC(NS(=O)(=O)c4cc(Cl)ccc4F)CC3)c2O1` [Compound 8, 5-Chloro-2-fluoro-N-{1-[2-(2,2-dimethyl-2,3-dihydrobenzofuran-7-yloxy)ethyl]piperidin-4-yl}benzenesulfonamide] the Kb was 141 ± 43 nM.

With `CC1(C)Cc2cccc(OCCN3CCC(NS(=O)(=O)c4cncc5ccccc45)CC3)c2O1` [Compound 13, 4-Isoquinoline-N-{1-[2-(2,2-dimethyl-2,3-dihydrobenzofuran-7-yloxy)ethyl]piperidin-4-yl}sulfonamide] the Kb was 155 ± 30 nM.
